Experiments:
[1] = tested on: PMA-induced ear swelling; test: PMA-induced mouse ear swelling (topical anti-inflammatory activity); type: in vivo, CD-1 (Crl.) derived male mice; settings: topical 3 mg/ear applied 30 min before and 15 min after PMA, measured 6 hours after PMA, >=30% considered significant
Protocol: A compound can be tested for topical anti-inflammatory activity by measuring the degree of inhibition of edema produced in a mouse ear that has been irritated by the application of a solution of a phorbol ester. [2-(7-Trifluoromethyl-quinolin-4-ylamino)-phenyl]-acetic acid sodium salt was tested for its anti-inflammatory activity as follows: Groups of 6 CD-1 (Crl.) derived male mice weighing 24±2 g were used. Phorbol 12-Myristate 13-Acetate (PMA 4 μg in 20 μl of Acetone) was applied topically to the anterior and posterior surfaces of the right ear to each animal. Vehicle (Ethanol:Acetone/1:1, 20 μl/ear) and [2-(7-Trifluoromethyl-quinolin-4-ylamino)-phenyl]-acetic acid sodium salt at 3 mg/ear were each applied 30 minutes before and 15 minutes after Phorbol 12-Myristate 13-Acetate challenge. Indomethacin (3 mg in 20 μl/ear of acetone:ethanol/1:1) as the positive control was similarly applied at the same timing. Ear swelling was then measured by a Dyer model micrometer gauge at 6 hours after Phorbol 12 Myristate 13-Acetate application as an index of inflammation. Percent inhibition was calculated according to the formula: ([Ic−It]/Ic)×100%, where Ic and It refer to increase of ear thickness (mm) in control and treated mice, respectively. Inhibition of 30 percent or more (≧30%) in ear swelling is considered significant anti-inflammatory activity.
[2-(7-Trifluoromethyl-quinolin-4-ylamino)-phenyl]-acetic acid sodium salt caused significant inhibition (80%) of the PMA-induced ear swelling vs vehicle control. […] When [2-(7-Trifluoromethyl-quinolin-4-ylamino)-phenyl]-acetic acid methyl ester was tested in this assay, the inhibition of ear swelling was not significant (20% inhibition).

[2] = biological target: T1, COX-1 enzyme (Homo sapiens, UniProt P23219); test: COX-1 inhibition in human platelets (PGE2 formation, EIA); type: cell-based
T1 construct: Human platelets are used; endogenous in cells; host or cells: human platelets
Protocol: Compounds can be tested for their ability to inhibit the COX-1 enzyme by the following procedure: Human platelets are used. Test compound and/or vehicle is incubated with cells (5×10^7/ml) in modified HEPES buffer pH 7.4 for 15 minutes at 37° C. The reaction is initiated by addition of 100 μM arachidonic acid for another 15 minute incubation period and terminated by further addition of 1 N HCl. An aliquot is removed and the amount of PGE 2 formed is determined spectrophotometrically by enzyme immunoassay (“EIA”) kit.
[2-(7-Trifluoromethyl-quinolin-4-ylamino)-phenyl]-acetic acid hydrochloride was screened at 6 concentrations to test for inhibition of the enzyme: 0.1 μM, 0.3 μM, 1 μM, 3 μM, 10 μM and 30 μM. [2-(7-Trifluoromethyl-quinolin-4-ylamino)-phenyl]-acetic acid hydrochloride inhibited the COX-1 enzyme with an IC50 of <0.1 μM in this assay.

[3] = biological target: T2, Human recombinant Cyclooxygenase-2 (Homo sapiens, UniProt P35354); test: COX-2 inhibition, human recombinant enzyme (PGE2 formation, EIA); type: biochemical; settings: human recombinant COX-2 expressed in Sf21 cells; 7 concentrations 0.01-10 μM; 0.3 μM arachidonic acid
T2 construct: purchased Sigma C-0858; host or cells: Sf21 cells
T2 sequence (P35354 18-604): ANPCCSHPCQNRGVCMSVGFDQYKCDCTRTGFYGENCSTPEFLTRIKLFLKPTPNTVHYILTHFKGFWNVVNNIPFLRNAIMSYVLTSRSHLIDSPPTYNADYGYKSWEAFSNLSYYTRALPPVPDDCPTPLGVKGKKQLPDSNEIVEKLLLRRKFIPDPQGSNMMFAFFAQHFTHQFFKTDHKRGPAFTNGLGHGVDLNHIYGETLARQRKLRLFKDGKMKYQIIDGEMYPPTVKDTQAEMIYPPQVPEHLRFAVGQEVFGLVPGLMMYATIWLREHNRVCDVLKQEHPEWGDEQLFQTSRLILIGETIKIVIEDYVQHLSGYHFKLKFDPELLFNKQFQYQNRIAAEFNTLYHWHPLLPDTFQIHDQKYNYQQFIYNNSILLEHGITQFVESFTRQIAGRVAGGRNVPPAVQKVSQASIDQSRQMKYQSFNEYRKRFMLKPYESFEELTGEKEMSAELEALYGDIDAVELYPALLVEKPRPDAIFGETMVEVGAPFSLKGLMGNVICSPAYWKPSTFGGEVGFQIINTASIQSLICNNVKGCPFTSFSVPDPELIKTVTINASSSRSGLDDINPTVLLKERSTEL
Protocol: Compounds can be tested for their ability to inhibit the COX-2 enzyme by the following procedure: Human recombinant Cyclooxygenase-2 expressed in Sf21 cells (Sigma, C-0858) is used. Test compound and/or vehicle is preincubated with 0.11 U cyclooxygenase-2, 1 mM reduced GSH, 500 μM phenol and 1 μM hematin for 15 minutes at 37° C. in Tris-HCl buffer pH 7.7. The reaction is initiated by addition of 0.3 μM arachidonic acid and terminated after 5 minutes by further addition of 1 N HCl. Following centrifugation, substrate conversion to PGE 2 is measured by an Amersham EIA kit.
[2-(7-Trifluoromethyl-quinolin-4-ylamino)-phenyl]-acetic acid hydrochloride was screened at 7 concentrations to test for inhibition of the enzyme: 0.01 uM, 0.03 μM, 0.1 μM, 0.3 μM, 1 μM, 3 μM and 10 μM.

T1 sequence (P23219 24-599): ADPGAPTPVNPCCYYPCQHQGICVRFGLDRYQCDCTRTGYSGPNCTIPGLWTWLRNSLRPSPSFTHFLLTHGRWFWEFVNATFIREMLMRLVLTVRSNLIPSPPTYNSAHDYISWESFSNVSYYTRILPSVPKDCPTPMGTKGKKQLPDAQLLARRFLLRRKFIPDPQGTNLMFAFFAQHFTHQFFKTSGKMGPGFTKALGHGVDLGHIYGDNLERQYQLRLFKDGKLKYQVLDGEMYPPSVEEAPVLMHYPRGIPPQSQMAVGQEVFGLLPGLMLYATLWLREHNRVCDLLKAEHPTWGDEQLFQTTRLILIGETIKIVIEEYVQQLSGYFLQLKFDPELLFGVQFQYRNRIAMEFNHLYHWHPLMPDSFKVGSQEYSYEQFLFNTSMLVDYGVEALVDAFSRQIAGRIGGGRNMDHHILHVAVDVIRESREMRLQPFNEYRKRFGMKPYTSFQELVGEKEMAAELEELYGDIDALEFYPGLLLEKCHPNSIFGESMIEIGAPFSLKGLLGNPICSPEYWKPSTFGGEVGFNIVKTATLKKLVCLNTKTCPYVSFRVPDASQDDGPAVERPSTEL

| melting point | IC50 ([2]; screened at 6 concentrations 0.1-30 μM, 100 μM arachidonic acid) | IC50 ([2]; tested separately at 3 concentrations (0.01, 0.03 and 0.1 μM)) | IC50 [3] | Compound | inhibition of PMA-induced ear swelling vs vehicle control [1] |
| --- | --- | --- | --- | --- | --- |
| 113 to 116 °C | – | – | – | Cl.O=C(O)Cc1ccccc1Nc1ccnc2cc(Cl)ccc12 | – |
| – | – | – | – | COc1ccc2c(c1)c(CC(=O)O)c(C)n2C(=O)c1ccc(Cl)cc1 [Indomethacin, reference compound] | 77% |
| 103 to 104 °C | < 100 nM | 81 nM | 61 nM | Cl.O=C(O)Cc1ccccc1Nc1ccnc2cc(C(F)(F)F)ccc12 [[2-(7-Trifluoromethyl-quinolin-4-ylamino)-phenyl]-acetic acid hydrochloride] | 75% |
| – | – | – | – | COC(=O)Cc1ccccc1Nc1ccnc2cc(C(F)(F)F)ccc12 [[2-(7-Trifluoromethyl-quinolin-4-ylamino)-phenyl]-acetic acid methyl ester] | 20% |
| – | – | – | – | O=C([O-])Cc1ccccc1Nc1ccnc2cc(C(F)(F)F)ccc12.[Na+] [[2-(7-Trifluoromethyl-quinolin-4-ylamino)-phenyl]-acetic acid sodium salt] | 80% |
